US20160194336A1, “P38 MAPK INHIBITORS FOR THE TREATMENT OF INFLAMMATORY DISEASES” (ALLINKY BIOPHARMA, priority 2012, published 2016)

Legend:
[1] = biological target: T1, p38alpha wt (Homo sapiens, UniProt Q16539); test: site-mutated p38 phosphorylation cascade assay, wild type; assay type: biochemical; details: compound 10 uM
T1 construct: made in house; host or cells: E. coli XL10-Gold
Protocol: (§1) After preincubation, MKK6 (ProQinase), ATF2 (ProQinase) and ATP were added to a final concentration of 10 nM, 5 μM and 10 μM respectively, then incubated 40 minutes at 30° C. and analyzed with ADP-Glo™.
(§2) Replacement of specific residues arginine 186 and 189 of p38α (pGEX4T-1-p38α) for alanine was performed with the QuikChange Lightining Site-Directed Mutagenesis Kit (Agilent Technologies). The following oligonucleotides were used for the arginine 186 to alanine substitution: forward primer: 5′-SEQ ID NO 7-3′; reverse primer: 5′-SEQ ID NO 8-3′. Oligonucleotides used for the arginine 189 to alanine substitution were: forward primer: 5′-SEQ ID NO 9-3′; reverse primer: 5′-SEQ ID NO 10-3′. Mutations were validated by sequencing (Genomic Unit, Parque Cientifico de Madrid). E. coli XL10-Gold ultracompentent cells (Agilent Technologies) were transformed with the vector plasmids containing p38αWT and mutants. For the expression of recombinant p38α transformed cells were cultured overnight at 37° C. in 50 ml of fresh LB medium containing ampicillin (100 μg/ml). After that, culture was diluted in fresh LB to A595=0.4 and grown for approximately 1 h at 37° C. until exponential growth and then induced with Isopropyl-β-D-thiogalactopyranoside (IPTG) 1 mM for 5 h. The cells were collected by centrifugation and cell pellet were resuspended in 50 ml of cold lysis buffer: PBS pH 7.4, EDTA 10 mM, PMSF 1 mM, Benzamidine 0.2 mM, DTT 5 mM, Triton X-100 1% and Lysozyme 1 mg/ml. The soluble and insoluble fractions were separated by centrifugation (16,000 g for 20 min). The soluble fraction was incubated for 2 hours with 1 ml of pre-equilibrated Glutathione Sepharose 4B (GE Healthcare) and the resin was extensively washed in a column with 200 ml of binding buffer: PBS, PMSF 1 mM and benzamidine 0.2 mM. Proteins were eluted with 1 ml of Tris-HCl 50 mM pH 8.0 and reduced glutathione 20 mM. 20% glycerol was added to purified proteins and stored at −80° C. Protein concentration and purity was assessed by SDS-PAGE. Kinase activity was measured by ADP-glo kit using MKK6 as activator and ATF2 as substrate. Activity recorded for p38αR186A and p38αR189A were 15.5% and 4.8%, respectively (n=4) related to wild type protein.

[2] = system: THP-1 cells; test: survival of monocytes with LPS; assay type: cell-based, human
[3] = biological target: T2, p38αR189A (Homo sapiens, UniProt Q16539, R189A); test: site-mutated p38 phosphorylation cascade assay, R189A mutant; assay type: biochemical; details: compound 10 uM
T2 construct: made in house; host or cells: E. coli XL10-Gold
T2 sequence (Q16539 whole entry R189A): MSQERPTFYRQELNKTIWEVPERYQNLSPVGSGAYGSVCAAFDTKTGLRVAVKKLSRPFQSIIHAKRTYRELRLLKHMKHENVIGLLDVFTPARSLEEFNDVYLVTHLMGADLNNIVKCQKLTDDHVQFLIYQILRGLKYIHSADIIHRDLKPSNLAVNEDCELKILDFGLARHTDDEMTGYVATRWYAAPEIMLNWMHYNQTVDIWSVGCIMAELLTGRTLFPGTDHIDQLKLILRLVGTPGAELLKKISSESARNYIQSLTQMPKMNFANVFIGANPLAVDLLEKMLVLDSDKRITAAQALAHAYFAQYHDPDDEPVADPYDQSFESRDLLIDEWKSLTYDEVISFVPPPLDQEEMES
Protocol: as §1, §2

[4] = biological target: T3, p38αR186A (Homo sapiens, UniProt Q16539, R186A); test: site-mutated p38 phosphorylation cascade assay, R186A mutant; assay type: biochemical; details: compound 10 uM
T3 construct: made in house; host or cells: E. coli XL10-Gold
T3 sequence (Q16539 whole entry R186A): as the sequence (Q16539 whole entry R189A) above, with R186A, A189R counted along it
Protocol: as §1, §2

[5] = system: TNF-α secretion, THP-1 cells; test: Inhibition of TNF-α secretion by LPS-stimulated THP-1; assay type: cell-based; details: Homo sapiens, THP-1, 3 h, monocytes with LPS, read-out: TNF abetment
Protocol: Inhibition of TNF-α Secretion by a Human Monocytic Cell Line, THP-1.
THP-1 cells, growing in log phase, were collected by centrifugation and resuspended in RPMI 1640 (Sigma Aldrich), to a final cell concentration of 2×10^6 cells/ml. Cells were plated into 24-well plates (BD Biosciences). Dilutions of compounds in dimethyl sulfoxide (DMSO) were added to the culture to a final concentration M. The final DMSO concentration was 0.5%. The cells […] suspensions were preincubated with compounds for 1 h at 37° C. in a 5% C02 humidified atmosphere before the addition of LPS (Sigma Aldrich, L2654) to a final concentration of 2 μg/ml. After that, cells were incubated for 3 h followed by centrifugation to pellet cells. Cell supernatants were stored at 4° C. until Human analysis for TNF-α content. TNF-α levels were determined by ELISA (TNF Biotrak, GE Healthcare) following the manufacturer's directions. The percentage inhibition was calculated for each compound concentration tested, and the IC50 was calculated for each compound.

T1 sequence (Q16539 whole entry): as the sequence (Q16539 whole entry R189A) above, with A189R counted along it

SMILES | inhibition at 10 µM [1] [%] | Cell survival ([2]; 1 uM) [%] | Cell survival ([2]; 10 uM) [%] | inhibition at 10 µM [3] [%] | inhibition at 10 µM [4] [%] | inhibition at 1 µM [5] [%] | inhibition at 10 µM [5] [%] | Cell survival ([2]; 0.1 uM) [%] | inhibition at 0.1 µM [5] [%]
CCOC(=O)c1ccc(Nc2nc3nonc3nc2NN=Cc2cccc3ccccc23)cc1 [Compound 12] | 81 | 97 | 99 | 14 | 39 | -6 | -16 |  | 
CCOC(=O)c1ccc(Nc2nc3nonc3nc2N2CCN(Cc3cccc(Cl)c3)CC2)cc1 [Compound 13] | 34 | 93 | 86 | 14 | 22 | 13 | 32 |  | 
CCOC(=O)c1ccc(Nc2nc3nonc3nc2N2CCN(Cc3ccccc3C)CC2)cc1 [Compound 14] | 31 |  | 81 | 17 | 18 |  | 17 |  | 
CCOC(=O)c1ccc(Nc2nc3nonc3nc2N2CCC(Sc3ccc(C)cc3)CC2)cc1 [Compound 15] | 61 | 92 | 97 | 20 | 28 | 17 | 32 |  | 
CCOC(=O)c1ccc(Nc2nc3nonc3nc2N2CCC(Oc3ccccc3OC)CC2)cc1 [Compound 16] | 32 | 95 | 93 | 17 | 15 | 26 | 35 | 88 | 16
CCOC(=O)c1ccc(Nc2nc3nonc3nc2N2CCC(C(=O)c3ccccc3)CC2)cc1 [Compound 17] | 56 | 98 | 97 | 13 | 19 | 34 | 69 | 99 | 21
CC(C)NC(=O)c1ccc(Nc2nc3nonc3nc2N2CCC(Cc3ccccc3)CC2)cc1 [Compound 18] | 62 | 83 | 79 | 33 | 37 | 34 | 56 | 90 | 1
CCCNC(=O)c1ccc(Nc2nc3nonc3nc2N2CCC(Cc3ccccc3)CC2)cc1 [Compound 19] | 71 | 97 | 93 | 32 | 35 | -21 | -10 | 103 | -47
CC(C)NC(=O)c1cccc(Nc2nc3nonc3nc2N2CCC(Cc3ccccc3)CC2)c1 [Compound 20] | 71 | 96 | 81 | 22 | 38 | 55 | 36 | 101 | -9
Cc1cc(C(=O)NCC(C)C)ccc1Nc1nc2nonc2nc1N1CCC(Cc2ccccc2)CC1 [Compound 21] | 83 | 95 | 94 | 38 | 48 | 18 | 20 | 98 | -15
Cc1ccc(SC2CCN(c3nc4nonc4nc3-c3cccc(C(=O)OC(C)C)c3)CC2)cc1 [Compound 22] | 31 | 94 | 99 | 6 | 16 | 17 | 10 | 97 | -2
CCCNC(=O)c1ccc(Nc2nc3nonc3nc2N2CCC(Sc3ccc(C)cc3)CC2)cc1 [Compound 23] | 90 | 95 | 88 | 26 | 48 | 41 | 60 | 96 | 26
CCOC(=O)c1ccc(NNc2nc3nonc3nc2N2CCC(Cc3ccccc3)CC2)cc1 [Compound 24] | 66 | 98 | 105 | 39 | 43 | 12 | 67 | 104 | -23
CCOC(=O)c1ccc(Nc2nc3nonc3nc2N2CCC(Oc3ccc(Cl)cc3)CC2)cc1 [Compound 25] | 59 | 61 | 42 | 30 | 14 | 61 | 102 | 88 | 12
CCOC(=O)c1ccc(Nc2nc3nonc3nc2Nc2ccc(C(=O)c3ccccc3)cc2)cc1 [Compound 26] | 73 | 87 | 83 | 28 | 40 | 30 | 8 | 86 | 27
CCOC(=O)c1ccc(Nc2nc3nonc3nc2Nc2ccc(Oc3ccncc3)cc2)cc1 [Compound 27] | 88 | 99 | 72 | 47 | 72 | 58 | 76 | 103 | 28
CCOC(=O)c1ccc(Nc2nc3nonc3nc2N2CCC(Sc3ccc(Cl)cc3)CC2)cc1 [Compound 28] | 86 | 87 | 88 | 27 | 41 | 24 | 36 | 88 | 17
O=C(O)c1ccc(Nc2nc3nonc3nc2N2CCC(Cc3ccccc3)CC2)cc1 [Compound 29] | 23 | 103 | 92 | 6 | 21 | 11 | 44 | 103 | 7
O=C([O][Na+])c1ccc(Nc2nc3nonc3nc2N2CCC(Cc3ccccc3)CC2)cc1 [Compound 30] | 25 | 97 | 93 | 9 | 19 | 16 | 41 | 99 | 12
COC(=O)c1ccc(Nc2nc3nonc3nc2N2CCC(Oc3ccc(Cl)cc3)CC2)cc1 [Compound 31] | 84 | 100 | 92 | 27 | 35 | 43 | 60 | 101 | 20
